Earlier results, collected in US20250369985A1, “METHOD FOR DETERMINING THE THERAPEUTIC REGIMEN FOR AN INDIVIDUAL AND ITS USE” (MOSAIQUES DIAGNOSTICS AND THERAPEUTICS AG, priority 2022, published 2025).
Like-named read-outs stand apart in the source and are kept apart here.

Tested on: urinary proteins/peptides (71 biomarkers of CD71 classifier)
[1] = peptide 99900220 (Seq. ID No. 1)
[2] = peptide 99900467 (Seq. ID No. 2)
[3] = peptide 99901399 (Seq. ID No. 3)
[4] = peptide 99902592 (Seq. ID No. 4)
[5] = peptide 99903025 (Seq. ID No. 5)
[6] = peptide 99904405 (Seq. ID No. 6)
[7] = peptide 99904666 (Seq. ID No. 7)
[8] = peptide 99904862 (Seq. ID No. 8)
[9] = peptide 99905044 (Seq. ID No. 9)
[10] = peptide 99905259 (Seq. ID No. 10)
[11] = peptide 99905274 (Seq. ID No. 11)
[12] = peptide 99905379 (Seq. ID No. 12)
[13] = peptide 99905423 (Seq. ID No. 13)
[14] = peptide 99905509 (Seq. ID No. 14)
[15] = peptide 99905551 (Seq. ID No. 15)
[16] = peptide 99906176 (Seq. ID No. 16)
[17] = peptide 99907275 (Seq. ID No. 17)
[18] = peptide 99907807 (Seq. ID No. 18)
[19] = peptide 99908755 (Seq. ID No. 19)
[20] = peptide 99908795 (Seq. ID No. 20)
[21] = peptide 99908916 (Seq. ID No. 21)
[22] = peptide 99909059 (Seq. ID No. 22)
[23] = peptide 99910002 (Seq. ID No. 23)
[24] = peptide 99910032 (Seq. ID No. 24)
[25] = peptide 99910407 (Seq. ID No. 25)
[26] = peptide 99910483 (Seq. ID No. 26)
[27] = peptide 99910554 (Seq. ID No. 27)
[28] = peptide 99910883 (Seq. ID No. 28)
[29] = peptide 99911002 (Seq. ID No. 29)
[30] = peptide 99911193 (Seq. ID No. 30)
[31] = peptide 99911415 (Seq. ID No. 31)
[32] = peptide 99911559 (Seq. ID No. 32)
[33] = peptide 99911777 (Seq. ID No. 33)
[34] = peptide 99912101 (Seq. ID No. 34)
[35] = peptide 99912211 (Seq. ID No. 35)
[36] = peptide 99912366 (Seq. ID No. 36)
[37] = peptide 99912411 (Seq. ID No. 37)
[38] = peptide 99912661 (Seq. ID No. 38)
[39] = peptide 99913200 (Seq. ID No. 39)
[40] = peptide 99913322 (Seq. ID No. 40)
[41] = peptide 99913825 (Seq. ID No. 41)
[42] = peptide 99914211 (Seq. ID No. 42)
[43] = peptide 99914445 (Seq. ID No. 43)
[44] = peptide 99914876 (Seq. ID No. 44)
[45] = peptide 99914887 (Seq. ID No. 45)
[46] = peptide 99914893 (Seq. ID No. 46)
[47] = peptide 99914935 (Seq. ID No. 47)
[48] = peptide 99915015 (Seq. ID No. 48)
[49] = peptide 99915755 (Seq. ID No. 49)
[50] = peptide 99915778 (Seq. ID No. 50)
[51] = peptide 99915883 (Seq. ID No. 51)
[52] = peptide 99916170 (Seq. ID No. 52)
[53] = peptide 99916177 (Seq. ID No. 53)
[54] = peptide 99916611 (Seq. ID No. 54)
[55] = peptide 99916615 (Seq. ID No. 55)
[56] = peptide 99916966 (Seq. ID No. 56)
[57] = peptide 99917047 (Seq. ID No. 57)
[58] = peptide 99917221 (Seq. ID No. 58)
[59] = peptide 99917280 (Seq. ID No. 59)
[60] = peptide 99917288 (Seq. ID No. 60)
[61] = peptide 99917419 (Seq. ID No. 61)
[62] = peptide 99917505 (Seq. ID No. 62)
[63] = peptide 99917596 (Seq. ID No. 63)
[64] = peptide 99917626 (Seq. ID No. 64)
[65] = peptide 99917690 (Seq. ID No. 65)
[66] = peptide 99917825 (Seq. ID No. 66)
[67] = peptide 99917890 (Seq. ID No. 67)
[68] = peptide 99917947 (Seq. ID No. 68)
[69] = peptide 99918831 (Seq. ID No. 69)
[70] = peptide 99918906 (Seq. ID No. 70)
[71] = peptide 99918909 (Seq. ID No. 71)

Measured: f (fold-change of the abundance)

CC(=O)S[C@@H]1CC2=CC(=O)CC[C@]2(C)[C@H]2CC[C@@]3(C)[C@@H](CC[C@@]34CCC(=O)O4)[C@H]12 [drug B, Spironolactone]
0.82: [57]
1.88: [53]
0.62: [71]
0.78: [26]
1.21: [39]
0.65: [41]
1.27: [69]
0.77: [14]
1: [1] | [2] | [3] | [4] | [5] | [6] | [7] | [8] | [9] | [10] | [11] | [12] | [13] | [16] | [17] | [18] | [19] | [20] | [21] | [22] | [23] | [24] | [25] | [27] | [28] | [29] | [30] | [31] | [32] | [33] | [34] | [35] | [37] | [38] | [40] | [42] | [43] | [45] | [46] | [48] | [49] | [50] | [51] | [52] | [54] | [55] | [56] | [58] | [59] | [60] | [61] | [62] | [63] | [64] | [65] | [66] | [67] | [68] | [70]
0.72: [47]
1.97: [15]
1.5: [36] | [44]

CCOc1nc2cccc(C(=O)O)c2n1Cc1ccc(-c2ccccc2-c2nnn[nH]2)cc1 [drug A]
1.78: [35]
0.65: [22]
0.74: [58]
1.26: [30]
1.15: [13]
1.47: [16]
0.67: [46] | [49]
0.64: [57]
0.81: [28]
1.4: [8]
1.27: [52]
0.68: [41]
1.49: [20]
1.5: [10]
1.83: [48]
1: [1] | [2] | [3] | [4] | [5] | [6] | [7] | [9] | [11] | [12] | [14] | [15] | [17] | [18] | [19] | [21] | [23] | [24] | [25] | [26] | [27] | [29] | [31] | [32] | [33] | [34] | [36] | [37] | [38] | [39] | [40] | [42] | [43] | [44] | [45] | [47] | [50] | [51] | [53] | [54] | [55] | [56] | [59] | [60] | [61] | [62] | [63] | [64] | [65] | [66] | [67] | [68] | [69] | [70] | [71]
